Data as given in publication PMC4156793 (Vascular Cell, 2014).
Marks after values point to notes of the source that are not given here.

Key:
VEGFR1 (FLT1) = biological target: T1, VEGFR1 (FLT1) (Homo sapiens, UniProt P17948); assay: In vitro kinase assay VEGFR1 (FLT1); type: biochemical
T1 construct: purchased Carna Biosciences, Inc. (Kobe, Japan)
Protocol: (§1) Tyrosine kinase assays were performed by an ELISA and Off-chip Mobility Shift Assay (MSA) by Carna Biosciences, Inc. (Kobe, Japan).

VEGFR3 (FLT4) = biological target: T2, VEGFR3 (FLT4) (Homo sapiens, UniProt P35916); assay: In vitro kinase assay VEGFR3 (FLT4); type: biochemical
T2 construct: purchased Carna Biosciences, Inc. (Kobe, Japan)
T2 sequence (P35916 25-1363): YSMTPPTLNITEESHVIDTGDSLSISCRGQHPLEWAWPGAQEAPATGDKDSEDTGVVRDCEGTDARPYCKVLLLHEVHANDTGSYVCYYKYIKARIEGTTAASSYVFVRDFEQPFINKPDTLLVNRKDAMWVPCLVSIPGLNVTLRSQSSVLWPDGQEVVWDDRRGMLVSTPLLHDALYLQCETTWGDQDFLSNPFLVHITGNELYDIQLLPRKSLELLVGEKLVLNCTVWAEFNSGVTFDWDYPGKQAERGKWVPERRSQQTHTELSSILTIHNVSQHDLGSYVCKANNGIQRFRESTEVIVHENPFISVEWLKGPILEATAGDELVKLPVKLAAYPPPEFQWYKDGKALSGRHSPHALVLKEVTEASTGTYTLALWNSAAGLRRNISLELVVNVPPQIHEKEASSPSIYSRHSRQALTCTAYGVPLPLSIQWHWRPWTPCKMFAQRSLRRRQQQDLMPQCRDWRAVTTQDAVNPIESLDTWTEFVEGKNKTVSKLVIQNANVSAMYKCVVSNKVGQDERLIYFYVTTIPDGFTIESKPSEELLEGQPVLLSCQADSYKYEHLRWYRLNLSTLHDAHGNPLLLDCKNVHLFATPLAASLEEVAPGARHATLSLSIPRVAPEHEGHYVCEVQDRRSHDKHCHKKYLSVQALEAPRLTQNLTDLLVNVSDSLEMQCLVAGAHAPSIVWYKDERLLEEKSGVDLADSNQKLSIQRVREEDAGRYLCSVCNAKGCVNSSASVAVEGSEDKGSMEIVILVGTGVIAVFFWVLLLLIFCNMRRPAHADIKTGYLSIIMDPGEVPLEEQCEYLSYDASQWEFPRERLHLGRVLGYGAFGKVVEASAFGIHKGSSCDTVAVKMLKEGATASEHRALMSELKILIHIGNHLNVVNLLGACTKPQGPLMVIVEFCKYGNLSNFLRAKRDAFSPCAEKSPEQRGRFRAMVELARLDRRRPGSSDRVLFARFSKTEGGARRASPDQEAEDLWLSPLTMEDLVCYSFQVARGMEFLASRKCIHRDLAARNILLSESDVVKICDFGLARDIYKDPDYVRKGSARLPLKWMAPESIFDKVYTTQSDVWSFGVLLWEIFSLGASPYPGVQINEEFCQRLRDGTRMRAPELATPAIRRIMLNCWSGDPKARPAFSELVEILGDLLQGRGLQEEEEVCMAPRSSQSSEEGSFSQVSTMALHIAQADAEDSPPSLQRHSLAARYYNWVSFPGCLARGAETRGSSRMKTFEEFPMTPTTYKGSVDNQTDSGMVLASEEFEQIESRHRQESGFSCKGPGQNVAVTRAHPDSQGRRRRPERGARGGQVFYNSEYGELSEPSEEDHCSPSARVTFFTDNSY
Protocol: as §1

FGFR1 = biological target: T3, FGFR1 (Homo sapiens, UniProt P11362); assay: In vitro kinase assay FGFR1; type: biochemical
T3 construct: purchased Carna Biosciences, Inc. (Kobe, Japan)
T3 sequence (P11362 22-822): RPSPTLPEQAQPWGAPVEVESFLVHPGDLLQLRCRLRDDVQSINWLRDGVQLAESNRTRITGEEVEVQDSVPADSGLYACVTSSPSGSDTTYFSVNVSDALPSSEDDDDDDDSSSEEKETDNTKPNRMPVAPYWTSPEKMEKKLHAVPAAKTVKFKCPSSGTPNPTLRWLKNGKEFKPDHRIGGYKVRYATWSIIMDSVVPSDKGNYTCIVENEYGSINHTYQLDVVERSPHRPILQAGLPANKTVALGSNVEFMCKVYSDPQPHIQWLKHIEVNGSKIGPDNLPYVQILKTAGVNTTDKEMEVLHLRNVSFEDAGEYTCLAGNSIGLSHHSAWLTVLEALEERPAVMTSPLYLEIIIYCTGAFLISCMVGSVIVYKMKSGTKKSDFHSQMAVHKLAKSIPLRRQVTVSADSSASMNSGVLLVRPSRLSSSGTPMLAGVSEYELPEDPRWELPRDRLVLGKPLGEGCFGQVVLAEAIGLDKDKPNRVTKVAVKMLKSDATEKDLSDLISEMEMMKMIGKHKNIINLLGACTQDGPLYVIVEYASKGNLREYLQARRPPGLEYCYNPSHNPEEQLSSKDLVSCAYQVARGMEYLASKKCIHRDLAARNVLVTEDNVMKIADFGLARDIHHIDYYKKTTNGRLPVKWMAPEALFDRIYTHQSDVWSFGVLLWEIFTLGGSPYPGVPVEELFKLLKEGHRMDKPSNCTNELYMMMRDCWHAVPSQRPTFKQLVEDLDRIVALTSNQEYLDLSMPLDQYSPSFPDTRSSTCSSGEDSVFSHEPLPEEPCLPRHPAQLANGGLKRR
Protocol: as §1

FGFR2 = biological target: T4, FGFR2 (Homo sapiens, UniProt P21802); assay: In vitro kinase assay FGFR2; type: biochemical
T4 construct: purchased Carna Biosciences, Inc. (Kobe, Japan)
T4 sequence (P21802 22-821): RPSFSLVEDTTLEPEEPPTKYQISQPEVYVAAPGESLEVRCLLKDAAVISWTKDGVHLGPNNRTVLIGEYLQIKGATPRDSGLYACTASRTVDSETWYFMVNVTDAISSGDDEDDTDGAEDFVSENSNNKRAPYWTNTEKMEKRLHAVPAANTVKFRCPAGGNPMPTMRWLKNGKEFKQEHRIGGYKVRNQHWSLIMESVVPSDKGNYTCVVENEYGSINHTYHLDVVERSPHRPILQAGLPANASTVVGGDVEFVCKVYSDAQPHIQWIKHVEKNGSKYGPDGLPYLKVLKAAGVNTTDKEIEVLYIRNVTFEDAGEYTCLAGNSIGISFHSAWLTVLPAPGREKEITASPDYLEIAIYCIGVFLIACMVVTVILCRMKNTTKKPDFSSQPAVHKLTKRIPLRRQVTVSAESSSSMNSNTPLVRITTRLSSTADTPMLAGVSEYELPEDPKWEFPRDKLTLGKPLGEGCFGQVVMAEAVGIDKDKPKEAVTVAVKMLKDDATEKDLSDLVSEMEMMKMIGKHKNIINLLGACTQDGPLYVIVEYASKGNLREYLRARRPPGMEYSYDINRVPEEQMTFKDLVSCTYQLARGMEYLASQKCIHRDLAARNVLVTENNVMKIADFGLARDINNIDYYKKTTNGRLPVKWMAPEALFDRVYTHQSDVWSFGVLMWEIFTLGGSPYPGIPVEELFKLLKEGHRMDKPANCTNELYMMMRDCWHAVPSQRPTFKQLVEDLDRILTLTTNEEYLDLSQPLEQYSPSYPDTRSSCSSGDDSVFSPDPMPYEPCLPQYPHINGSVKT
Protocol: as §1

FGFR3 = biological target: T5, FGFR3 (Homo sapiens, UniProt P22607); assay: In vitro kinase assay FGFR3; type: biochemical
T5 construct: purchased Carna Biosciences, Inc. (Kobe, Japan)
T5 sequence (P22607 23-806): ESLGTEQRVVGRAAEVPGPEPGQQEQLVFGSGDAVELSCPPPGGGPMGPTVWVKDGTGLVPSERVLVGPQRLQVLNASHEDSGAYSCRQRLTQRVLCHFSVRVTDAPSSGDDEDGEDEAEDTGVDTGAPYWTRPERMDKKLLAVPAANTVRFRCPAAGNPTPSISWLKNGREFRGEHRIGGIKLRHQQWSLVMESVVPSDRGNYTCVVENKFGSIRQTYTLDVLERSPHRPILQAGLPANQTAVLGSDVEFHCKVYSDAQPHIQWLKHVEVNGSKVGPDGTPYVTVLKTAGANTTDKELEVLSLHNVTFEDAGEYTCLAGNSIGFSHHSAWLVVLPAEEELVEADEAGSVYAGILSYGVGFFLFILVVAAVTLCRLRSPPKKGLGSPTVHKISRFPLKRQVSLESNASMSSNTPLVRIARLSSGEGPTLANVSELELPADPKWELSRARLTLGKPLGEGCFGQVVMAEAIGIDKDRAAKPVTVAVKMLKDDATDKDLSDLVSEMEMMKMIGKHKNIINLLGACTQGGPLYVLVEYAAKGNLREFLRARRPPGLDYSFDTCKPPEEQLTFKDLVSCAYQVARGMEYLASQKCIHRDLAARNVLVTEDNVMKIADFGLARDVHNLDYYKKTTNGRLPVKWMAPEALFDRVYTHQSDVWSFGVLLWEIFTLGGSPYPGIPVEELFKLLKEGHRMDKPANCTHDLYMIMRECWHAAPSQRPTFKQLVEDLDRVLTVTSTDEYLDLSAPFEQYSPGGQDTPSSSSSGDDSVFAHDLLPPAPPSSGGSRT
Protocol: as §1

KIT = biological target: T6, KIT (Homo sapiens, UniProt P10721); assay: In vitro kinase assay KIT; type: biochemical
T6 construct: purchased Carna Biosciences, Inc. (Kobe, Japan)

HUVECs [1] = assay: VEGF-induced proliferation of HUVECs; type: cell-based; settings: Homo sapiens, HUVEC, 72 h; VEGF 20 ng/mL, 3 days, WST-1
Protocol: (§2) Tumor cells were plated at 1 to 2 × 10^3 cells/well on 96-well plates in 0.1 ml of RPMI 1640 containing 10% FBS. […] The HUVEC proliferation assay were performed by a method described previously. […] After incubation for 3 days, cell viability was determined by measuring the absorbance of WST-1 reagent (DOJINDO, Kumamoto, Japan). Percent inhibition of cell growth was determined by the formula below: Inhibition (%) = Mean value of OD of control wells - OD of treated wells * 100/Mean value of OD of control wells. Each value is expressed as the mean. […] All experiments were done in either duplicate or quadruplicate.

HUVECs [2] = assay: VEGF-induced sandwich tube formation (sTF) of HUVECs; type: cell-based; settings: Homo sapiens, HUVEC, 96 h; sTF assay, EGF 10 ng/mL with VEGF 20 ng/mL, 4 days
Protocol: (§3) In vitro sandwich tube formation (sTF) assay, HUVECs in SFM containing EGF (10 ng/mL) with VEGF (20 ng/mL) or FGF2 (20 ng/ml) were plated onto the 1st layer of collagen gel (Nitta Gelatin, Tokyo, Japan) at 1.0 × 10^5 cells in 24-well plates and a 2nd layer of collagen gel was added onto the HUVECs. […] After 4 days, MTT solution was added and photomicrographs of tube formation were taken with a light microscope. The tube length of capillaries was measured using image analysis (Angiogenesis Image Analyzer, ver. 1.04; Kurabo, Osaka, Japan).

HUVECs [3] = assay: FGF-2 induced proliferation of HUVECs; type: cell-based; settings: Homo sapiens, HUVEC, 72 h; FGF2 20 ng/mL, 3 days, WST-1
Protocol: as §2

HUVECs [4] = assay: FGF-2 induced sandwich tube formation (sTF) of HUVECs; type: cell-based; settings: Homo sapiens, HUVEC, 96 h; sTF assay, EGF 10 ng/mL with FGF2 20 ng/ml, 4 days
Protocol: as §3

KP-1/VEGF transfectants = assay: In vitro growth of KP-1/VEGF transfectants; type: cell-based; settings: Homo sapiens
Protocol: as §2

MDA-MB 435 (Melanoma) = assay: Tumor cell proliferation assay (MTT), MDA-MB 435; type: cell-based; settings: Homo sapiens, read-out: IC50 in vitro anti-proliferative activity
Protocol: (§4) Tumor cells were plated at 1 to 2 × 10^3 cells/well on 96-well plates in 0.1 ml of RPMI 1640 containing 10% FBS. […] The HUVEC proliferation assay were performed by a method described previously. […] Percent inhibition of cell growth was determined by the formula below: Inhibition (%) = Mean value of OD of control wells - OD of treated wells * 100/Mean value of OD of control wells. Each value is expressed as the mean. […] All experiments were done in either duplicate or quadruplicate.

MIApaca-II (Pancreas) = assay: Tumor cell proliferation assay (MTT), MIApaca-II; type: cell-based; settings: Homo sapiens, read-out: IC50 in vitro anti-proliferative activity
Protocol: as §4

H460 (Lung) = assay: Tumor cell proliferation assay (MTT), H460; type: cell-based; settings: Homo sapiens, NCI-H460; read-out: IC50 in vitro anti-proliferative activity
Protocol: as §4

SK-OV-3 (Ovary) = assay: Tumor cell proliferation assay (MTT), SK-OV-3; type: cell-based; settings: Homo sapiens, read-out: IC50 in vitro anti-proliferative activity
Protocol: as §4

Colo205 (Colon) = assay: Tumor cell proliferation assay (MTT), Colo205; type: cell-based; settings: Homo sapiens, COLO 205, read-out: IC50 in vitro anti-proliferative activity
Protocol: as §4

A431 (Epidermoid) = assay: Tumor cell proliferation assay (MTT), A431; type: cell-based; settings: Homo sapiens, A-431, read-out: IC50 in vitro anti-proliferative activity
Protocol: as §4

DU145 (Prostate) = assay: Tumor cell proliferation assay (MTT), DU145; type: cell-based; settings: Homo sapiens, DU-145, read-out: IC50 in vitro anti-proliferative activity
Protocol: as §4

[5] = test system: MDA-MB 435 (Melanoma) xenograft; assay: Subcutaneous xenograft model, MDA-MB 435; type: in vivo, mouse; settings: MDA-MB 435 xenograft
Protocol: (§5) Tumor cells were injected subcutaneously into the right flank region of 7-week-old nude mice. […] Tumor diameters were measured with a vernier caliper and body weight was measured twice weekly. The tumor volume (mm^3) was calculated using the formula: length (mm) × width (mm)^2 × 1/2. […] When the tumor volume was reduced, the ΔT/C values were calculated by the following formula: ΔT/C (%) = (TVn - TV1)/TV1 × 100, where TVn is the tumor volume of treated mice at day n. The number of mice is ten for control group in Table 1 and five for each group in other experiments. Mice in control group were treated with vehicle.

[6] = test system: MIApaca-II (Pancreas) xenograft; assay: Subcutaneous xenograft model, MIApaca-II; type: in vivo, mouse
Protocol: as §5

H460 (Lung) xenograft = assay: Subcutaneous xenograft model, H460; type: in vivo, mouse
Protocol: as §5

[7] = test system: SK-OV-3 (Ovary) xenograft; assay: Subcutaneous xenograft model, SK-OV-3; type: in vivo, mouse; settings: SK-OV-3 xenograft
Protocol: as §5

[8] = test system: Colo205 (Colon) xenograft; assay: Subcutaneous xenograft model, Colo205; type: in vivo, mouse
Protocol: as §5

[9] = test system: A431 (Epidermoid) xenograft; assay: Subcutaneous xenograft model, A431; type: in vivo, mouse
Protocol: as §5

[10] = test system: DU145 (Prostate) xenograft; assay: Subcutaneous xenograft model, DU145; type: in vivo, mouse
Protocol: as §5

[11] = Tolerability in tumor-bearing nude mice; type: in vivo
Protocol: as §5

SEKI model = assay: Subcutaneous xenograft model, SEKI; type: in vivo, mouse; settings: 100 mg/kg orally twice daily for 7 days
Protocol: as §5
Each group consisted of 5 mice. […] The relationship between the antitumor activity and MVD is shown in (B), and that between the antitumor activity and the % of pericyte coverage of vessels is shown in (C). Each symbol (○) indicates the mean of MVD or pericyte coverage in each tumor xenograft model. (D) Vascular score in the lenvatinib-sensitive and –relatively resistant groups. The vascular score was the sum of the MVD and pericyte coverage scores.

[12] = test system: VEGF-driven in vivo angiogenesis (KP-1/VEGF transfectants); assay: Mouse dorsal air sac (DAS) assay, KP-1/VEGF; settings: 100 and 300 mg/kg, orally once daily for 4 days
Protocol: (§6) An in vivo angiogenesis assay in mice was performed as described previously with minor changes. Millipore chambers (Millipore, Bedford, MA) were packed with 1.0 × 10^7 KP-1 mock, KP-1/VEGF or KP-1/FGF transfectants and transplanted into the dorsal air sac of C57BL/6 mice (n = 3–5 each, with experiments performed in triplicate). For a pseudo-operation, collagen I gel was injected into the Millipore chambers. Photographs were taken 4 days after implantation.
(§7) (A) In vivo angiogenesis in mouse DAS assay. Angiogenesis was induced by overexpressed human VEGF121 (KP-1/VEGF) or mouse FGF4 (KP-1/FGF) in human pancreatic cancer KP-1 cells at the mouse dorsal skin. Representative photographs are shown. […] Compounds were administered orally once daily for 4 days at the indicated doses. Data are the mean ± std. *: p < 0.05 and **: p < 0.01 compared to vehicle.

[13] = test system: FGF-driven in vivo angiogenesis (KP-1/FGF transfectants); assay: Mouse dorsal air sac (DAS) assay, KP-1/FGF; settings: 100 mg/kg, orally once daily for 4 days
Protocol: as §6, §7

[14] = test system: FGFR-driven proliferation; settings: read-out: IC50, FGFR-driven proliferation in cell assays; cited from earlier work
[15] = 1 mg/kg orally twice daily for 28 days
[16] = 3 mg/kg orally twice daily for 28 days
[17] = 10 mg/kg orally twice daily for 28 days
[18] = 30 mg/kg orally twice daily for 28 days
[19] = 100 mg/kg orally twice daily for 28 days
[20] = 1 mg/kg orally twice daily for 14 days
[21] = 3 mg/kg orally twice daily for 14 days
[22] = 10 mg/kg orally twice daily for 14 days
[23] = 30 mg/kg orally twice daily for 14 days
[24] = 100 mg/kg orally twice daily for 14 days

T1 sequence (P17948 27-1338): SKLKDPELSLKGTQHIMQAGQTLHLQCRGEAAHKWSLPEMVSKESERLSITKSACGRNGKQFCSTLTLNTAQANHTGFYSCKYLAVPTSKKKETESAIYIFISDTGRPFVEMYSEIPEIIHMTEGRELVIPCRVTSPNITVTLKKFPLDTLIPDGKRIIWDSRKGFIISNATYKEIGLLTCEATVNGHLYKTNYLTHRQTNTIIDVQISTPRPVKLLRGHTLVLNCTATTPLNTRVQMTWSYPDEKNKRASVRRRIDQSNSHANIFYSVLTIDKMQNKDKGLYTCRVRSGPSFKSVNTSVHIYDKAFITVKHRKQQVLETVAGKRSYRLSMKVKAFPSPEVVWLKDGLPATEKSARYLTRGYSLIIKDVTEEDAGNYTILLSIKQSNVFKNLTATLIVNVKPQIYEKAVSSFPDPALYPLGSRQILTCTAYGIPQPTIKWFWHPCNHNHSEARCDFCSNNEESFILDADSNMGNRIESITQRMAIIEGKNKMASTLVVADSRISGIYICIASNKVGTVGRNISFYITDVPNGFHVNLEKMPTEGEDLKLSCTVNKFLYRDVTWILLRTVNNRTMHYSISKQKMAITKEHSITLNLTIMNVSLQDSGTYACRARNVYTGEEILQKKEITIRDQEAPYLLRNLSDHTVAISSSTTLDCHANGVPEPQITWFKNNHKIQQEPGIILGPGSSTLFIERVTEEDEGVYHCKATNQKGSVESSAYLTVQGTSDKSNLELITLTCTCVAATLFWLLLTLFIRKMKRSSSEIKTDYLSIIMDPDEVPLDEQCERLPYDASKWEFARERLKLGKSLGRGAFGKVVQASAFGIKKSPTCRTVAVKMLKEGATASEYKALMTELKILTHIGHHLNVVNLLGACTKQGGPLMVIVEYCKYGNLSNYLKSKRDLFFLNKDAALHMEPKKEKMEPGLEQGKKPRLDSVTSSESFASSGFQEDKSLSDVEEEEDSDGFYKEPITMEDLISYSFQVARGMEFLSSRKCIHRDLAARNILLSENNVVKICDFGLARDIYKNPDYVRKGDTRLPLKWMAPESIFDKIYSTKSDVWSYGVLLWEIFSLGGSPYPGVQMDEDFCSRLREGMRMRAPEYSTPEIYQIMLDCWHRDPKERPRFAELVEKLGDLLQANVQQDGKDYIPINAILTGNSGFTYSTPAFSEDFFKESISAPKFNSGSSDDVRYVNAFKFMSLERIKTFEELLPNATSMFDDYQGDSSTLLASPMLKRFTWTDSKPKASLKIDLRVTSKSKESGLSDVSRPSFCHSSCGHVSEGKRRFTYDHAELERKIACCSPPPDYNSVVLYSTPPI

COc1cc2nccc(Oc3ccc(NC(=O)NC4CC4)c(Cl)c3)c2cc1C(N)=O [lenvatinib, 4-[3-Chloro-4-(N’-cyclopropylureido)phenoxy]-7-methoxyquinoline-6-carboxamide]
Ki (VEGFR1 (FLT1)): 1.3 nM
Ki (VEGFR3 (FLT4)): 0.71 nM
Ki (FGFR1): 22 nM
Ki (FGFR2): 8.2 nM
Ki (FGFR3): 15 nM
Ki (KIT): 11 nM
IC50 (HUVECs [1]): 3.4 nM
IC50 (HUVECs [2]): 2.7 nM
IC50 (HUVECs [3]): 410 nM
IC50 (HUVECs [4]): 590 nM
IC50 (KP-1/VEGF transfectants): 19600 nM
IC50 (MDA-MB 435 (Melanoma)): 24200 nM
IC50 (MIApaca-II (Pancreas)): 33800 nM
IC50 (H460 (Lung)): 26300 nM
IC50 (SK-OV-3 (Ovary)): 26400 nM
IC50 (Colo205 (Colon)): 27500 nM
IC50 (A431 (Epidermoid)): 30800 nM
IC50 (DU145 (Prostate)): 30800 nM
ΔTV (%) lenvatinib (mg/kg) 1 [5, 15]: 55.7* %
ΔTV (%) lenvatinib (mg/kg) 3 [5, 16]: 56.9* %
ΔTV (%) lenvatinib (mg/kg) 10 [5, 17]: 40.2* %
ΔTV (%) lenvatinib (mg/kg) 30 [5, 18]: 21.2* %
ΔTV (%) lenvatinib (mg/kg) 100 [5, 19]: 25.7* %
ΔTV (%) lenvatinib (mg/kg) 1 [6, 20]: 56.1* %
ΔTV (%) lenvatinib (mg/kg) 3 [6, 21]: 49.9* %
ΔTV (%) lenvatinib (mg/kg) 10 [6, 22]: 30.1* %
ΔTV (%) lenvatinib (mg/kg) 30 [6, 23]: 15.3* %
ΔTV (%) lenvatinib (mg/kg) 100 [6, 24]: 12.5* %
ΔTV (%) lenvatinib (mg/kg) 1 (H460 (Lung) xenograft; [20]): 65.4%
ΔTV (%) lenvatinib (mg/kg) 3 (H460 (Lung) xenograft; [21]): 34.9* %
ΔTV (%) lenvatinib (mg/kg) 10 (H460 (Lung) xenograft; [22]): 16.3* %
ΔTV (%) lenvatinib (mg/kg) 30 (H460 (Lung) xenograft; [23]): 16.4* %
ΔTV (%) lenvatinib (mg/kg) 100 (H460 (Lung) xenograft; [24]): -0.8* %
ΔTV (%) lenvatinib (mg/kg) 1 [7, 20]: 52.3* %
ΔTV (%) lenvatinib (mg/kg) 3 [7, 21]: 39.6* %
ΔTV (%) lenvatinib (mg/kg) 10 [7, 22]: 12.2* %
ΔTV (%) lenvatinib (mg/kg) 30 [7, 23]: 8.3* %
ΔTV (%) lenvatinib (mg/kg) 100 [7, 24]: -15.6* %
ΔTV (%) lenvatinib (mg/kg) 1 [8, 20]: 43.8* %
ΔTV (%) lenvatinib (mg/kg) 3 [8, 21]: 23.1* %
ΔTV (%) lenvatinib (mg/kg) 10 [8, 22]: 12.8* %
ΔTV (%) lenvatinib (mg/kg) 30 [8, 23]: -4.5* %
ΔTV (%) lenvatinib (mg/kg) 100 [8, 24]: -21.3* %
ΔTV (%) lenvatinib (mg/kg) 1 [9, 20]: 41.7%
ΔTV (%) lenvatinib (mg/kg) 3 [9, 21]: 29.4* %
ΔTV (%) lenvatinib (mg/kg) 10 [9, 22]: 0.0* %
ΔTV (%) lenvatinib (mg/kg) 30 [9, 23]: -7.5* %
ΔTV (%) lenvatinib (mg/kg) 100 [9, 24]: -32.9* %
ΔTV (%) lenvatinib (mg/kg) 1 [10, 15]: -7.5* %
ΔTV (%) lenvatinib (mg/kg) 3 [10, 16]: -42.2* %
ΔTV (%) lenvatinib (mg/kg) 10 [10, 17]: -65.4* %
ΔTV (%) lenvatinib (mg/kg) 30 [10, 18]: -72.0* %
ΔTV (%) lenvatinib (mg/kg) 100 [10, 19]: -78.6* %
Losses of body weights ([11]; 100 mg/kg twice daily for 4 weeks, observed in 3 out of 7 models): < 10%
MTD at 4 weeks ([11]; mouse, in vivo, oral, tumor xenograft models, read-out: Maximum tolerated dose (MTD)): 100 mg/kg
Antitumor activity, SEKI model (SEKI model): no effect

CNC(=O)c1cc(Oc2ccc(NC(=O)Nc3ccc(Cl)c(C(F)(F)F)c3)cc2)ccn1 [sorafenib, reference compound]
Antiangiogenic activity, KP-1/VEGF DAS model [12]: selective antiangiogenic activity
Inhibition of FGF-driven in vivo angiogenesis, KP-1/FGF DAS assay [13]: did not inhibit
IC50 [14]: 2000 nM
